In brackets after ≈: the same amount, converted by molar mass. Bounds are passed on as bounds.

For data set [1], the system named is Plasmodium falciparum. Put plainly: Antiplasmodial activity against Plasmodium falciparum D6 infected in human RBC assessed as parasite growth inhibition measured as LDH activity after 72 hrs by plate reader analysis. The conditions noted are these: Plasmodium falciparum, D6, 72 h. Type of data set: functional, organism-based.
For data set [2], the system named is Plasmodium falciparum. Nature of the data set: Antiplasmodial activity against Plasmodium falciparum W2 infected in human RBC assessed as parasite growth inhibition measured as LDH activity after 72 hrs by plate reader analysis. Type of data set: functional, organism-based. The conditions noted are these: Plasmodium falciparum, W2, 72 h.
The subject of the next data set is Vero. Nature of the data set: Cytotoxicity against African green monkey Vero cells assessed as cell growth inhibition after 48 hrs by neutral red assay. Type of data set: cell-based. To be noted: Chlorocebus sabaeus.
The test system of another data set is LLC-PK1. Put plainly: Cytotoxicity against pig LLC-PK1 cells assessed as cell growth inhibition after 48 hrs by neutral red assay. To be noted: Sus scrofa, LLC-PK1, 48 h. The class given is cell-based.
A further data set deals with SK-MEL. Put plainly: Cytotoxicity against human SK-MEL cells assessed as cell growth inhibition after 48 hrs by neutral red assay. The class given is cell-based.
The next data set relates to KB. Put plainly: Cytotoxicity against human KB cells assessed as cell growth inhibition after 48 hrs by neutral red assay. The class given is cell-based.
Another data set deals with BT-549. Nature of the data set: Cytotoxicity against human BT549 cells assessed as cell growth inhibition after 48 hrs by neutral red assay. To be noted: BT-549, 48 h. Type of data set: cell-based.
The subject of the next data set is SK-OV-3. Put plainly: Cytotoxicity against human SKOV3 cells assessed as cell growth inhibition after 48 hrs by neutral red assay. The conditions noted are these: SK-OV-3, 48 h. The class given is cell-based.
Data set [3] is described as follows: Selectivity index, ratio of IC50 for African green monkey VERO cells to IC50 for Plasmodium falciparum D6.
The nature of data set [4]: Selectivity index, ratio of IC50 for pig LLC-PK1 cells to IC50 for Plasmodium falciparum D6.
The nature of data set [5]: Selectivity index, ratio of IC50 for African green monkey VERO cells to IC50 for Plasmodium falciparum W2.
The nature of data set [6]: Selectivity index, ratio of IC50 for pig LLC-PK1 cells to IC50 for Plasmodium falciparum W2.
Data set [7] concerns Mycobacterium tuberculosis. Put plainly: Antitubercular activity against Mycobacterium tuberculosis H37Rv assessed as […] inhibition after 7 days by broth microdilution assay. Type of data set: functional. The conditions noted are these: 168 h. In general terms: Dilution methods test growth across graded concentrations, often in twofold steps.
A short description of data set [8]: Retention time of the compound by HPLC analysis. Type of data set: physicochemical.

Consider `N#Cc1ccc(S(=O)(=O)n2cc(-c3ccnc(N)n3)c3cc(Br)ccc32)cc1`, for which the IC50 is 10.3 µM in the data set on Plasmodium falciparum [1] (read-out: IC50); 10.3 µM in the data set on Plasmodium falciparum [1] (read-out: pIC50 (converted)); 5.2 µM with Plasmodium falciparum [2] (read-out: IC50); 5.2 µM with Plasmodium falciparum [2] (read-out: pIC50 (converted)); more than 55 µM in the data set with Vero; more than 55 µM with LLC-PK1. Besides, the IC50 with SK-MEL, with KB, with BT-549 and in the data set with SK-OV-3 was more than 55 µM in each case. Further, the “Ratio IC50” value in [3] is listed as more than 5.3; in data set [4] it was more than 5.3; in data set [5], more than 10.6; in [6] it was more than 10.6. Further, the MIC90 – broadly, the lowest concentration that inhibits either 90% of growth or 90% of the strains tested, depending on the study – in data set [7] turned out to be 70.6 µM (≈ 32.1 µg/mL). In [8], this molecule yielded a Retention_time of 7.09 min.
As to `Nc1nccc(-c2cn(S(=O)(=O)c3ccc(C(F)(F)F)cc3[N+](=O)[O-])c3ccc(Br)cc23)n1`, the IC50 in the data set on Plasmodium falciparum [1] (read-out: IC50) is 2.56 µM; in the data set with Plasmodium falciparum [1] (read-out: pIC50 (converted)), 2.56 µM; in the data set with Plasmodium falciparum [2] (read-out: IC50), 3.41 µM; in the data set with Plasmodium falciparum [2] (read-out: pIC50 (converted)), 3.41 µM; in the data set with Vero, more than 46 µM; in the data set with LLC-PK1, more than 46 µM. For the same molecule, the IC50 with SK-MEL was more than 46 µM; in the data set on KB, more than 46 µM; in the data set on BT-549, more than 46 µM; with SK-OV-3, more than 28 µM. Besides, the “Ratio IC50” value in data set [3] is more than 18; in data set [4], more than 18; in [5], more than 13.5; in data set [6] it was more than 13.5. In data set [7], the MIC90 was 118 µM (≈ 64.2 µg/mL). The Retention_time in data set [8] is listed as 8.26 min.
With `CC(=O)Nc1ccc(S(=O)(=O)n2cc(-c3ccnc(N)n3)c3cc(Br)ccc32)cc1`, the IC50 was 9.33 µM with Plasmodium falciparum [1] (read-out: IC50); 9.33 µM in the data set on Plasmodium falciparum [1] (read-out: pIC50 (converted)); 9.14 µM in the data set on Plasmodium falciparum [2] (read-out: IC50); 9.14 µM with Plasmodium falciparum [2] (read-out: pIC50 (converted)); more than 51 µM with Vero; more than 51 µM in the data set on LLC-PK1. For the same molecule, the IC50 in the data set on SK-MEL, in the data set with KB, with BT-549 and in the data set on SK-OV-3 was more than 51 µM throughout. The “Ratio IC50” value in [3] is recorded as more than 5.5; in [4], more than 5.5; in data set [5], more than 5.6; in [6], more than 5.6. Moreover, in data set [8], the Retention_time worked out at 6.95 min.
`N#Cc1ccc(S(=O)(=O)n2cc(-c3ccnc(N)n3)c3ccccc32)cc1`: the IC50 in the data set with Plasmodium falciparum [1] (read-out: IC50) was 11 µM; in the data set on Plasmodium falciparum [1] (read-out: pIC50 (converted)), 11 µM; in the data set with Plasmodium falciparum [2] (read-out: IC50) it was 8.98 µM; in the data set with Plasmodium falciparum [2] (read-out: pIC50 (converted)), 8.97 µM; in the data set on Vero, more than 66 µM; in the data set with LLC-PK1, more than 66 µM. Also, the IC50 with SK-MEL, with KB, in the data set with BT-549 and in the data set on SK-OV-3 was more than 66 µM throughout. Also, the “Ratio IC50” value in [3] is listed as more than 6; in data set [4], more than 6; in [5], more than 7.4; in data set [6] it was more than 7.4. This molecule also returned a Retention_time in [8] of 7.02 min.
Consider `Nc1nccc(-c2cn(S(=O)(=O)c3ccc(C(F)(F)F)cc3)c3ccc(Br)cc23)n1`, for which the IC50 was 8.92 µM in the data set on Plasmodium falciparum [1] (read-out: IC50); 8.91 µM in the data set on Plasmodium falciparum [1] (read-out: pIC50 (converted)); 9.41 µM with Plasmodium falciparum [2] (read-out: IC50); 9.42 µM with Plasmodium falciparum [2] (read-out: pIC50 (converted)); more than 50 µM with Vero; more than 50 µM with LLC-PK1. In addition, the IC50 with SK-MEL, with KB, in the data set on BT-549 and in the data set on SK-OV-3 was more than 50 µM each time. The “Ratio IC50” value in data set [3] is on record as more than 5.6; in data set [4], more than 5.6; in data set [5] it was more than 5.3; in data set [6] it was more than 5.3. The molecule further returned a Retention_time in data set [8] of 9.54 min.
Take `Nc1nccc(-c2cn(S(=O)(=O)c3cccc(C(F)(F)F)c3)c3ccc(Br)cc23)n1`: the IC50 in the data set with Plasmodium falciparum [1] (read-out: IC50) is 9.3 µM; with Plasmodium falciparum [1] (read-out: pIC50 (converted)), 9.29 µM; with Plasmodium falciparum [2] (read-out: IC50) it was 5.34 µM; with Plasmodium falciparum [2] (read-out: pIC50 (converted)), 5.35 µM; with Vero, more than 50 µM; in the data set on LLC-PK1, more than 50 µM. For the same molecule, the IC50 in the data set with SK-MEL, in the data set with KB, in the data set on BT-549 and in the data set on SK-OV-3 was more than 50 µM throughout. In addition, the “Ratio IC50” value was more than 5.4 in data set [3], more than 5.4 in [4], more than 9.4 in data set [5] and more than 9.4 in data set [6]. The molecule further returned a Retention_time in data set [8] of 8.61 min.

These data come from ChEMBL document CHEMBL3425465, “Synthesis, antimalarial and antitubercular activities of meridianin derivatives” (Eur J Med Chem, 2015).
